Measured values from patent US12162840B2, “Herbicidal compositions” (SYNGENTA PARTICIPATIONS AG, priority 2018, dated 2024).

Tested on: cool season plant species
Assay: B2 Post-emergence efficacy Test 2, cool season plant species
Format: in vivo
Conditions: 15 days after application, 0=no damage, 100=total kill
In short: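 Plants at 12 days post-sowing were sprayed with active ingredient formulated in IF50 plus 0.2% v/v Genapol XO80, then grown in a glasshouse (24/18 °C or 20/16 °C day/night, 16 h light, 65% humidity). Damage scored 15 days after application on 0–100 scale (100 = total kill).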

Cc1nn(C)c(=O)c(-c2c(F)ccc(Cl)c2CCc2ccc(F)cc2)c1OC(=O)C(C)C [Compound 1.125]
Herbicidal activity (0-100 scale) ALOMY (15 g/Ha): 10
Herbicidal activity (0-100 scale) ALOMY (30 g/Ha): 10
Herbicidal activity (0-100 scale) ALOMY (60 g/Ha): 30
Herbicidal activity (0-100 scale) ALOMY (125 g/Ha): 30
Herbicidal activity (0-100 scale) ALOMY (250 g/Ha): 60
Herbicidal activity (0-100 scale) ALOMY (500 g/Ha): 40
Herbicidal activity (0-100 scale) AVEFA (15 g/Ha): 30
Herbicidal activity (0-100 scale) AVEFA (30 g/Ha): 40
Herbicidal activity (0-100 scale) AVEFA (60 g/Ha): 60
Herbicidal activity (0-100 scale) AVEFA (125 g/Ha): 70
Herbicidal activity (0-100 scale) AVEFA (250 g/Ha): 70
Herbicidal activity (0-100 scale) AVEFA (500 g/Ha): 80
Herbicidal activity (0-100 scale) BEAVA (15 g/Ha): 70
Herbicidal activity (0-100 scale) BEAVA (30 g/Ha): 60
Herbicidal activity (0-100 scale) BEAVA (60 g/Ha): 60
Herbicidal activity (0-100 scale) BEAVA (125 g/Ha): 70
Herbicidal activity (0-100 scale) BEAVA (250 g/Ha): 70
Herbicidal activity (0-100 scale) BEAVA (500 g/Ha): 70
Herbicidal activity (0-100 scale) BROTE (15 g/Ha): 0
Herbicidal activity (0-100 scale) BROTE (30 g/Ha): 0
Herbicidal activity (0-100 scale) BROTE (60 g/Ha): 0
Herbicidal activity (0-100 scale) BROTE (125 g/Ha): 0
Herbicidal activity (0-100 scale) BROTE (250 g/Ha): 10
Herbicidal activity (0-100 scale) BROTE (500 g/Ha): 10
Herbicidal activity (0-100 scale) BRSNN (15 g/Ha): 80
Herbicidal activity (0-100 scale) BRSNN (30 g/Ha): 80
Herbicidal activity (0-100 scale) BRSNN (60 g/Ha): 80
Herbicidal activity (0-100 scale) BRSNN (125 g/Ha): 90
Herbicidal activity (0-100 scale) BRSNN (250 g/Ha): 90
Herbicidal activity (0-100 scale) BRSNN (500 g/Ha): 90
Herbicidal activity (0-100 scale) CHEAL (15 g/Ha): 90
Herbicidal activity (0-100 scale) CHEAL (30 g/Ha): 90
Herbicidal activity (0-100 scale) CHEAL (60 g/Ha): 90
Herbicidal activity (0-100 scale) CHEAL (125 g/Ha): 90
Herbicidal activity (0-100 scale) CHEAL (250 g/Ha): 90
Herbicidal activity (0-100 scale) CHEAL (500 g/Ha): 90
Herbicidal activity (0-100 scale) GALAP (30 g/Ha): 20
Herbicidal activity (0-100 scale) GALAP (60 g/Ha): 20
Herbicidal activity (0-100 scale) GALAP (125 g/Ha): 30
Herbicidal activity (0-100 scale) GALAP (250 g/Ha): 40
Herbicidal activity (0-100 scale) GALAP (500 g/Ha): 70
Herbicidal activity (0-100 scale) HORVW (15 g/Ha): 0
Herbicidal activity (0-100 scale) HORVW (30 g/Ha): 0
Herbicidal activity (0-100 scale) HORVW (60 g/Ha): 10
Herbicidal activity (0-100 scale) HORVW (125 g/Ha): 10
Herbicidal activity (0-100 scale) HORVW (250 g/Ha): 10
Herbicidal activity (0-100 scale) HORVW (500 g/Ha): 10
Herbicidal activity (0-100 scale) KCHSC (15 g/Ha): 0
Herbicidal activity (0-100 scale) KCHSC (30 g/Ha): 20
Herbicidal activity (0-100 scale) KCHSC (60 g/Ha): 30
Herbicidal activity (0-100 scale) KCHSC (125 g/Ha): 50
Herbicidal activity (0-100 scale) KCHSC (250 g/Ha): 60
Herbicidal activity (0-100 scale) KCHSC (500 g/Ha): 70
Herbicidal activity (0-100 scale) LOLPE (15 g/Ha): 40
Herbicidal activity (0-100 scale) LOLPE (30 g/Ha): 50
Herbicidal activity (0-100 scale) LOLPE (60 g/Ha): 60
Herbicidal activity (0-100 scale) LOLPE (125 g/Ha): 70
Herbicidal activity (0-100 scale) LOLPE (250 g/Ha): 80
Herbicidal activity (0-100 scale) LOLPE (500 g/Ha): 90
Herbicidal activity (0-100 scale) POAAN (15 g/Ha): 0
Herbicidal activity (0-100 scale) POAAN (30 g/Ha): 10
Herbicidal activity (0-100 scale) POAAN (60 g/Ha): 20
Herbicidal activity (0-100 scale) POAAN (125 g/Ha): 60
Herbicidal activity (0-100 scale) POAAN (250 g/Ha): 70
Herbicidal activity (0-100 scale) POAAN (500 g/Ha): 60
Herbicidal activity (0-100 scale) POLCO (15 g/Ha): 90
Herbicidal activity (0-100 scale) POLCO (30 g/Ha): 90
Herbicidal activity (0-100 scale) POLCO (60 g/Ha): 90
Herbicidal activity (0-100 scale) POLCO (125 g/Ha): 90
Herbicidal activity (0-100 scale) POLCO (250 g/Ha): 90
Herbicidal activity (0-100 scale) POLCO (500 g/Ha): 90
Herbicidal activity (0-100 scale) SINAR (15 g/Ha): 60
Herbicidal activity (0-100 scale) SINAR (30 g/Ha): 60
Herbicidal activity (0-100 scale) SINAR (60 g/Ha): 80
Herbicidal activity (0-100 scale) SINAR (125 g/Ha): 90
Herbicidal activity (0-100 scale) SINAR (250 g/Ha): 90
Herbicidal activity (0-100 scale) SINAR (500 g/Ha): 90
Herbicidal activity (0-100 scale) STEME (15 g/Ha): 90
Herbicidal activity (0-100 scale) STEME (30 g/Ha): 90
Herbicidal activity (0-100 scale) STEME (60 g/Ha): 90
Herbicidal activity (0-100 scale) STEME (125 g/Ha): 90
Herbicidal activity (0-100 scale) STEME (250 g/Ha): 90
Herbicidal activity (0-100 scale) STEME (500 g/Ha): 90
Herbicidal activity (0-100 scale) TRZAW (15 g/Ha): 0
Herbicidal activity (0-100 scale) TRZAW (30 g/Ha): 10
Herbicidal activity (0-100 scale) TRZAW (60 g/Ha): 10
Herbicidal activity (0-100 scale) TRZAW (125 g/Ha): 20
Herbicidal activity (0-100 scale) TRZAW (250 g/Ha): 30
Herbicidal activity (0-100 scale) TRZAW (500 g/Ha): 50
Herbicidal activity (0-100 scale) VERPE (15 g/Ha): 70
Herbicidal activity (0-100 scale) VERPE (30 g/Ha): 70
Herbicidal activity (0-100 scale) VERPE (60 g/Ha): 70
Herbicidal activity (0-100 scale) VERPE (125 g/Ha): 80
Herbicidal activity (0-100 scale) VERPE (250 g/Ha): 80
Herbicidal activity (0-100 scale) VERPE (500 g/Ha): 90
